This note sets out measurements from patent publication US8633161B2, “Therapeutic agents for the treatment of leukemia” (The Ohio State University Research Foundation, priority 2005, dated 2014).

For one data set, the system named is Akt. In words: Western blot of phosphorylated and total Akt. The format is cell-based. The note with it: FTY720-treated 32D-BCR/ABL cells.
In data set [1] the test system is primary CML-BC, p210-BCR/ABL and p190-BCR/ABL expressing cell lines. In words: FTY720 in vitro: proliferation, clonogenic potential and apoptosis of BCR/ABL-expressing cells. It counts as cell-based. The settings on record: 2.5 μM FTY720, imatinib-sensitive and -resistant p210 and p190 cell lines. The source says: We studied the in vitro effect of FTY720 and derivative compounds on proliferation rate, clonogenic potential, and apoptosis in imatinib-sensitive and -resistant p210-BCR/ABL-expressing cells and p190-BCR/ABL-expressing cells. We then investigated the in vivo antileukemic potential of FTY720 in a mouse-model of imatinib-resistant CML-BC,
(§1) We obtained FTY720 synthesized using previously published methods (see Budde, K., et al., First human trial of FTY720, a novel immunomodulator, in stable renal transplant patients. J Am Soc Nephrol, (2002) 13:1073-83). Cells in liquid culture and in methylcellulose colony assays were cultured in the presence of 2.5 μM FTY720. SCID mice were i.v. injected with 5×10^5 T315I BCR/ABL-transduced 32Dc13 cells and levels of BCR/ABL in the peripheral blood were assessed by nested reverse transcriptase PCR. Upon establishment of a leukemia-like disease, mice were i.p. injected daily with FTY720 (250 μg/mouse/day). The disease process was monitored weekly by nested reverse transcriptase PCR. Apoptosis was assessed by AnnexinV/PI staining on untreated vs. treated cells.

The subject of data set [2] is T315I BCR/ABL-transduced 32Dc13 cells. It counts as in vivo. The protocol:
as §1

Data set [3] has as its system untransduced 32Dc13 cells and primary normal bone marrow cells. Kind of data set: FTY720 on cells not expressing the oncogene. The format is cell-based. The settings on record: untransduced 32Dc13 cells and primary normal bone marrow cells from healthy donors; FTY720 2.5 μM. The protocol: as §1
For a further data set, the target named is T1, PP2A (Mus musculus, UniProt P63330).
T1 construct: endogenous in cells; host or cells: 32Dc13, 32D-BCR/ABL, 32D-BCR/ABL-T315I, 32D-p210 Y253H, BaF3-p210 T315I, K562, primary CML-BC CD34+ and NBM CD34+ cells
Kind of data set: PP2A IP phosphatase assay on lysates of treated cells. The format is cell-based. The note with it: FTY720 2.5 μM, BCR/ABL-transformed cell lines. The protocol: PP2A phosphatase assays were carried out using the PP2A IP phosphatase assay kit (Upstate). Briefly, protein lysates (50 μg) in 100 μl of 20 mM HEPES (pH 7.0)/100 mM NaCl, 5 μg of PP2Ac antibody (Upstate), and 25 μl of Protein A-agarose were added to 400 μl of 50 mM Tris (pH 7.0)/100 mM CaCl2, and IPs were carried out at 4° C. for 2 hr. IPs were washed and used in the phosphatase reaction according to the manufacturer's protocol. Specificity of the PP2A assay was assessed by titration with okadaic acid and by ascertaining the absence of PP1a in the PP2A immunoprecipitates (Figure S2A). As internal control, the amount of immunoprecipitated PP2A was also monitored by anti-PP2Ac Western blots (Figure S2B).

A further data set deals with BCR/ABL. Kind of data set: Western blot of BCR/ABL activity (phosphotyrosine) and expression. The format is cell-based. The settings on record: upon treatment with FTY720 2.5 μM.

Turning to `CCCCCCCCc1ccc(CCC(N)(CO)CO)cc1` [FTY720], the Akt phosphorylation/activity result in the data set with Akt was “Dephosphorylation and inactivation”. Also, the “growth, apoptosis and clonogenic potential” value in data set [1] is “significant growth inhibition, apoptosis and impaired clonogenic potential”. In addition, the mice alive entry in data set [2] (FTY720 250 μg/mouse/day i.p., after 20 weeks of treatment) is “more than 50%”. Besides, the signs of toxicity result in data set [2] (control group that received only the drug) is “no signs of toxicity”. Besides, the “inhibitory effect on cells not expressing the oncogene” value in data set [3] is given as “no effect was detected”. Moreover, the “expression of PP2A protein levels” value on PP2A was “without increased expression”. Besides, the PP2A activity entry on PP2A (prior to induction of apoptosis) is on record as “induces”. Moreover, the BCR/ABL activity entry with BCR/ABL is given as “inactivated”.
